From ChEMBL document CHEMBL4196070, “Development of Piperazinediones as dual inhibitor for treatment of Alzheimer's disease” (Eur J Med Chem, 2018)
pIC50, pKi: −log10 of the molar value.

Legend:
[1] = target: T1, Acetylcholinesterase (Electrophorus electricus, UniProt O42275); assay: Inhibition of electric eel AChE using acetylthiocholine iodide as substrate preincubated for 30 mins followed by substrate addition and measured for 20 mins at 1 min interval by Ellman's method
[2] = target: Cholinesterase (Equus caballus, UniProt P81908); assay: Inhibition of equine serum BuChE using butyrylthiocholine iodide as substrate preincubated for 30 mins followed by substrate addition and measured for 20 mins at 1 min interval by Ellman's method
Chain of Cholinesterase (P81908 whole entry): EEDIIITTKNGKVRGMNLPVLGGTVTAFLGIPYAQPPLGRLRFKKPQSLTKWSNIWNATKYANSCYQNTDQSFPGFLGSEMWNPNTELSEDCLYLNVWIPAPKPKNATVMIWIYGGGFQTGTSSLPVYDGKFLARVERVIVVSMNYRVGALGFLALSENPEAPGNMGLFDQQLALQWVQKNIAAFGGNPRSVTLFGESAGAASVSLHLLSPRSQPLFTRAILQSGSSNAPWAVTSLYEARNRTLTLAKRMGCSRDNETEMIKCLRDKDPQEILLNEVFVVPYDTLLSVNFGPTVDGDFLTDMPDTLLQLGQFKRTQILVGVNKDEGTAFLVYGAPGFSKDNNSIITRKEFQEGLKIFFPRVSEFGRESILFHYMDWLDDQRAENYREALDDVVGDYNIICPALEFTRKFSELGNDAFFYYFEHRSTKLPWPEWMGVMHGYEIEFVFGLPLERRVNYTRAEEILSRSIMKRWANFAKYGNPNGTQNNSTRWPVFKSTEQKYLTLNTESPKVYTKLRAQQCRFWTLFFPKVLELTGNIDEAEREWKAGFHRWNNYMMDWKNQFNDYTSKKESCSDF

[3] = target: T2, 72 kDa type IV collagenase (Homo sapiens, UniProt P08253); assay: Inhibition of human MMP2 using Mca-Pro-Leu-Gly-Leu-Dpa-Ala-Arg-NH as substrate preincubated for 60 mins followed by substrate addition by fluorescence analysis
T2 sequence (P08253 whole entry): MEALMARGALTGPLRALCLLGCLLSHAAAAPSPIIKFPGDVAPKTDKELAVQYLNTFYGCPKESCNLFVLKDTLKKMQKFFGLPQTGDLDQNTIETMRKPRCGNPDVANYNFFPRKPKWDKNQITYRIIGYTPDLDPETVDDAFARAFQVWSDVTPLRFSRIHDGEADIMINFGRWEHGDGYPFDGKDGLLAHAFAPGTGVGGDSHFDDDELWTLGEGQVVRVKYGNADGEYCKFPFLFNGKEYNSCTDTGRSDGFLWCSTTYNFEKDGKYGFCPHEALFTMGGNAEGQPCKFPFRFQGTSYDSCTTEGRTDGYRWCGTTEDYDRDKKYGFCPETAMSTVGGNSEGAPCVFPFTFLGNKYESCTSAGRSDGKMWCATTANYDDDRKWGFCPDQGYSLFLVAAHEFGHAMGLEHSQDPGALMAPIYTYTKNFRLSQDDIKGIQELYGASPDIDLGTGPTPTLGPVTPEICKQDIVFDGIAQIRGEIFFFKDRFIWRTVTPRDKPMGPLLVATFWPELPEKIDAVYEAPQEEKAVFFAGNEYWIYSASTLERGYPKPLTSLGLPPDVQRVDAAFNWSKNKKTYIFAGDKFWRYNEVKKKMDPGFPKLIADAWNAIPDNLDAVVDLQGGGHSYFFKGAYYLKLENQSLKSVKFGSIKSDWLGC

[4] = Permeability of the compound at 25 ug/ml after 18 hrs by PAMPA-BBB assay; type: ADME; conditions: read-out: permeability
[5] = system: Mus musculus; assay: Effect on locomotive behavior in Swiss albino mouse at 5 to 20 mg/kg, ip administered once daily for 7 days prior to 4 hrs of training and measured after 5 mins by Y-maze test; type: ADME, organism-based; conditions: in vivo
[6] = Toxicity in Wistar rat measured for 72 hrs; type: organism-based; conditions: in vivo
[7] = system: Rattus norvegicus; assay: Toxicity in Wistar rat assessed as mortality at 300 mg/kg measured for 72 hrs; type: organism-based; conditions: in vivo
[8] = target: T1, Acetylcholinesterase; assay: Non-competitive inhibition of electric eel AChE using acetylthiocholine iodide as substrate preincubated for 30 mins followed by substrate addition by Dixon plot analysis
[9] = target: T2, 72 kDa type IV collagenase; assay: Competitive inhibition of human MMP2 using Mca-Pro-Leu-Gly-Leu-Dpa-Ala-Arg-NH as substrate preincubated for 60 mins followed by substrate addition by secondary plot analysis
[10] = Neuroprotective activity against tetracycline removal-induced cytotoxicity in human MC65 cells assessed as cell viability at 70 uM after 12 hrs by MTT assay relative to control; type: functional; conditions: MC65, 12 h, read-out: Activity

T1 sequence (O42275 whole entry): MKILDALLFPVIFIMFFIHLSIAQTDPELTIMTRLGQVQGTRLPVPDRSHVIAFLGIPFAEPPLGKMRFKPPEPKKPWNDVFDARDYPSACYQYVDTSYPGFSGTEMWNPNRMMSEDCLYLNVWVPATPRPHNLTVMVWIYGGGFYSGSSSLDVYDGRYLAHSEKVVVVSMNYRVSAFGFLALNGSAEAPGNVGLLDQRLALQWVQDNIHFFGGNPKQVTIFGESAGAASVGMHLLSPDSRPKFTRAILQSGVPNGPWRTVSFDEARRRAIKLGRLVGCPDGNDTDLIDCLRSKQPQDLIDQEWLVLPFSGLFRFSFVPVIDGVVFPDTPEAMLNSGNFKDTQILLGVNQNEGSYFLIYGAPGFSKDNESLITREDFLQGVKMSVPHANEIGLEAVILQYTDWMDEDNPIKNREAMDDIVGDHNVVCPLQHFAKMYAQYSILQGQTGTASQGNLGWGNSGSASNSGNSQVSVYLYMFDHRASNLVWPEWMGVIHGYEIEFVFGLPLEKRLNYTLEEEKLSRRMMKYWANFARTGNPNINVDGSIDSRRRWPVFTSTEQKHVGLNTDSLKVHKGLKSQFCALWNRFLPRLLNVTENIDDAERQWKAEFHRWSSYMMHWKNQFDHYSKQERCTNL

SMILES | pIC50 [1] | pIC50 [2] | pIC50 [3] | Papp at 18 h, 25 ug/ml [4] | Activity [5] | LD50 at 72 h [6] | Activity [7] | pKi [8] | pKi [9] | viability at 70 µM [10]
O=C1C(Cc2ccccc2)N(S(=O)(=O)c2cccc(Br)c2)C(=O)C(Cc2ccccc2)N1S(=O)(=O)c1cccc(Br)c1 (centres undefined) | 7.11 | 6.72 | 7.24 | 8.06 ×10⁻⁶ cm/s | – | – | – | – | – | –
O=C1CN(S(=O)(=O)c2ccc(Br)cc2)C(=O)CN1S(=O)(=O)c1ccc(Br)cc1 | 7.09 | 6.72 | 7.26 | 8.87 ×10⁻⁶ cm/s | – | – | – | – | – | –
O=C1C(Cc2ccccc2)N(S(=O)(=O)c2ccc([N+](=O)[O-])cc2)C(=O)C(Cc2ccccc2)N1S(=O)(=O)c1ccc([N+](=O)[O-])cc1 (centres undefined) | 7.24 | 6.79 | 7.27 | 4.49 ×10⁻⁶ cm/s | – | – | – | – | – | –
O=C1CN(S(=O)(=O)c2ccccc2)C(=O)CN1S(=O)(=O)c1ccccc1 | 7.01 | < 6.70 | 7.09 | – | – | – | – | – | – | –
CN(C)CCCN1c2ccccc2Sc2ccc(Cl)cc21 [CHLORPROMAZINE] | – | – | – | 5.9 to 6.5 ×10⁻⁶ cm/s | – | – | – | – | – | –
O=C1C(Cc2ccccc2)N(S(=O)(=O)c2cccc(O)c2)C(=O)C(Cc2ccccc2)N1S(=O)(=O)c1cccc(O)c1 (centres undefined) | 7.16 | < 6.70 | 7.08 | 6.36 ×10⁻⁶ cm/s | – | – | – | – | – | –
O=C1CN(S(=O)(=O)c2ccc(F)cc2)C(=O)CN1S(=O)(=O)c1ccc(F)cc1 | 7.11 | 6.73 | 7.26 | 10.3 ×10⁻⁶ cm/s | – | – | – | – | – | –
O=C1CN(S(=O)(=O)c2ccc(Cl)cc2)C(=O)CN1S(=O)(=O)c1ccc(Cl)cc1 | 7.21 | 6.74 | 7.30 | 6.43 ×10⁻⁶ cm/s | – | – | – | – | – | –
Nc1ccc(S(=O)(=O)N2C(=O)C(c3ccccc3)N(S(=O)(=O)c3ccc(N)cc3)C(=O)C2c2ccccc2)cc1 (centres undefined) | 7.04 | < 6.70 | 7.30 | 5.53 ×10⁻⁶ cm/s | – | – | – | – | – | –
O=C1C(c2ccccc2)N(S(=O)(=O)c2ccc([N+](=O)[O-])cc2)C(=O)C(c2ccccc2)N1S(=O)(=O)c1ccc([N+](=O)[O-])cc1 (centres undefined) | 7.22 | 6.75 | 7.48 | 4.63 ×10⁻⁶ cm/s | – | – | – | – | – | –
O=C1C(Cc2ccccc2)N(S(=O)(=O)c2ccc(O)cc2)C(=O)C(Cc2ccccc2)N1S(=O)(=O)c1ccc(O)cc1 (centres undefined) | 7.23 | 6.70 | 7.14 | 5.68 ×10⁻⁶ cm/s | – | – | – | – | – | –
Cc1ccc(S(=O)(=O)N2CC(=O)N(S(=O)(=O)c3ccc(C)cc3)CC2=O)cc1 | 6.93 | < 6.70 | 7.06 | 10.4 ×10⁻⁶ cm/s | – | – | – | – | – | –
COc1ccc(S(=O)(=O)N2CC(=O)N(S(=O)(=O)c3ccc(OC)cc3)CC2=O)cc1 | 7.04 | < 6.70 | 7.12 | 6.46 ×10⁻⁶ cm/s | – | – | – | – | – | –
CCCS(=O)(=O)N1CC(=O)N(S(=O)(=O)CCC)CC1=O | < 6.70 | < 6.70 | < 6.00 | 0.89 ×10⁻⁶ cm/s | – | – | – | – | – | –
O=C1C(c2ccccc2)N(S(=O)(=O)c2ccc(O)cc2)C(=O)C(c2ccccc2)N1S(=O)(=O)c1ccc(O)cc1 (centres undefined) | 7.07 | < 6.70 | 7.24 | 6.84 ×10⁻⁶ cm/s | – | – | – | – | – | –
Cc1nnc2n1-c1ccc(Cl)cc1C(c1ccccc1)=NC2 [ALPRAZOLAM] | – | – | – | 4.6 to 5.4 ×10⁻⁶ cm/s | – | – | – | – | – | –
O=C1C(Cc2ccccc2)N(S(=O)(=O)c2ccc(Br)cc2)C(=O)C(Cc2ccccc2)N1S(=O)(=O)c1ccc(Br)cc1 (centres undefined) | 7.24 | 6.74 | 7.41 | 7.29 ×10⁻⁶ cm/s | – | – | – | – | – | –
O=C1C(Cc2ccccc2)N(S(=O)(=O)c2ccc(Cl)cc2)C(=O)C(Cc2ccccc2)N1S(=O)(=O)c1ccc(Cl)cc1 (centres undefined) | 7.49 | 6.80 | 7.43 | 12.3 ×10⁻⁶ cm/s | Non-Toxic | 200 mg/kg | Toxic | – | – | –
O=C1CN(S(=O)(=O)c2cccc(Cl)c2)C(=O)CN1S(=O)(=O)c1cccc(Cl)c1 | 7.18 | 6.70 | 7.24 | 8.37 ×10⁻⁶ cm/s | – | – | – | – | – | –
O=C1C(c2ccccc2)N(S(=O)(=O)c2ccc(Br)cc2)C(=O)C(c2ccccc2)N1S(=O)(=O)c1ccc(Br)cc1 (centres undefined) | 7.30 | 6.74 | 7.49 | 8.31 ×10⁻⁶ cm/s | – | – | – | – | – | –
Cc1ccc(S(=O)(=O)N2C(=O)C(c3ccccc3)N(S(=O)(=O)c3ccc(C)cc3)C(=O)C2c2ccccc2)cc1 (centres undefined) | 7.12 | < 6.70 | 7.20 | 11.3 ×10⁻⁶ cm/s | – | – | – | – | – | –
O=C1C(c2ccccc2)N(S(=O)(=O)c2ccc(Cl)cc2)C(=O)C(c2ccccc2)N1S(=O)(=O)c1ccc(Cl)cc1 (centres undefined) | 7.54 | 6.79 | 7.71 | 7.38 ×10⁻⁶ cm/s | Non-Toxic | 200 mg/kg | Toxic | 8.15 | 7.70 | 99.4%
CCCCS(=O)(=O)N1CC(=O)N(S(=O)(=O)CCCC)CC1=O | < 6.70 | < 6.70 | < 6.00 | 1.06 ×10⁻⁶ cm/s | – | – | – | – | – | –
NCCc1ccc(O)c(O)c1 [DOPAMINE] | – | – | – | 0.17 to 0.2 ×10⁻⁶ cm/s | – | – | – | – | – | –
CCn1cc(C(=O)O)c(=O)c2cc(F)c(N3CCNC(C)C3)c(F)c21 (centres undefined) [LOMEFLOXACIN] | – | – | – | 0.31 to 1.1 ×10⁻⁶ cm/s | – | – | – | – | – | –
Cc1cccc(S(=O)(=O)N2C(=O)C(c3ccccc3)N(S(=O)(=O)c3cccc(C)c3)C(=O)C2c2ccccc2)c1 (centres undefined) | 7.08 | < 6.70 | 7.13 | 11.8 ×10⁻⁶ cm/s | – | – | – | – | – | –
O=C1C(c2ccccc2)N(S(=O)(=O)c2cccc(Br)c2)C(=O)C(c2ccccc2)N1S(=O)(=O)c1cccc(Br)c1 (centres undefined) | 7.12 | 6.72 | 7.26 | 9.45 ×10⁻⁶ cm/s | – | – | – | – | – | –
Nc1ccc(S(=O)(=O)N2CC(=O)N(S(=O)(=O)c3ccc(N)cc3)CC2=O)cc1 | 7.06 | < 6.70 | 7.27 | 6.1 ×10⁻⁶ cm/s | – | – | – | – | – | –
CC(=O)[C@H]1CC[C@H]2[C@@H]3CCC4=CC(=O)CC[C@]4(C)[C@H]3CC[C@]12C [PROGESTERONE] | – | – | – | 9.3 to 15.8 ×10⁻⁶ cm/s | – | – | – | – | – | –
